Reference: patent publication EP4682141A1, “TRICYCLIC COMPOUND” (ONO Pharmaceutical Co., Ltd., priority 2023, dated 2024)

Key:
[1] = target: T1, EP1 (Homo sapiens, UniProt P34995); assay: agonist activity on human EP1 receptor (intracellular calcium concentration, EP1-CHO cells); type: cell-based
T1 construct: expressed in transfected cells; host or cells: CHO (EP1-CHO)
T1 sequence (P34995 1-402): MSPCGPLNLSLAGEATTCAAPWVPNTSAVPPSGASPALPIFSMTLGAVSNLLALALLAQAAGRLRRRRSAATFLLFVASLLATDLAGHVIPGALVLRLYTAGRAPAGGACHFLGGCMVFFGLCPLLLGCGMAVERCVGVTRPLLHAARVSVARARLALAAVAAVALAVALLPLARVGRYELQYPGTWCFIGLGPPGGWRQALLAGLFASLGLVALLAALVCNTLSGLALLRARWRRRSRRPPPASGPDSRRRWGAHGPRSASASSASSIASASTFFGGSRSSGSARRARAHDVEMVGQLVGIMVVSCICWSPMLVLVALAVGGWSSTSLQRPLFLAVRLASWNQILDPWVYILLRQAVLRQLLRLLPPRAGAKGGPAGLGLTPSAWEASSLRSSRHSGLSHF
Protocol: Using CHO cells (EP1-CHO, EP2-CHO, EP3-Chem1, EP4-CHO and IP-CHO) on which various human prostanoid receptors were forcibly expressed, the agonist activity of the test compound on the various prostanoid receptors was examined using the intracellular calcium concentration for EP1 and EP3, and the intracellular cyclic AMP (hereinafter, abbreviated as cAMP) production amount for EP2, EP4 and IP as indices.
The test compound and control substances (PGE2 and iloprost) were dissolved in dimethyl sulfoxide (DMSO) to prepare a 10 mmol/L solution. The prepared 10 mmol/L solution was thawed at the time of use, serially diluted using DMSO, and diluted with a buffer solution 1 for measurement (Hank's balanced salt solution (Thermofischer scientific) containing 1 w/v% human serum albumin (Sigma), 2 µmol/L indomethacin (Sigma), 2.5 mmol/L probenecid, and 10 mmol/L HEPES-NaOH (pH7.4)) or a buffer solution 2 for measurement (D-PBS (Nacalai Tesque) containing 0.1 w/v% human serum albumin, 2 µmol/L diclofenac (Sigma), and 1 mmol/L 3-isobutyl-1-methylxanthine (Sigma)) to perform experiments.
The intracellular calcium concentration was measured using Calcium 6 Assay Kit (Molecular Devices). On the day before the measurement, EP1-CHO and EP3-Chem 1 were obtained by thawing the frozen cells, suspended using Ham's F-12 medium (Thermofischer scientific) containing inactivated (56°C, 30 min) 9.8 vol% FBS (Thermofischer scientific) and penicillin-streptomycin (Nacalai Tesque), seeded into a 96 well UV plate to 1.0×10^5 cells per well, and static cultured at 37°C in the presence of 5%CO2. On the day of the measurement, the medium was removed, followed by addition of 120 µL of the Calcium indication solution dissolved in the buffer solution 1 for measurement and incubation at room temperature under light-shielding for about 1 hour. After 1 hour incubation, the 96 well UV plates were set in a fluorescence spectrophotometer (FDSS-7000, Hamamatsu Photonics) to measure the intracellular calcium concentration. Thirty microliters of the buffer solution 1 for measurement containing various concentrations of agonists were added, and the mixture was reacted. The intracellular calcium concentration was measured by irradiating the cells with 480 nm excitation light and measuring the fluorescence intensity at 540 nm.

[2] = test system: rat renal ischemia reperfusion (IR) model; assay: in vivo drug efficacy in rat renal ischemia reperfusion (IR) model; set-up: species or system Crl : CD (SD) rats
Protocol: The effect of the present compound on renal IR damage was evaluated using male rats.
Male Crl : CD (SD) rats aged 3 or 4 weeks were purchased from Charles River Laboratories Japan, and subjected to experiments. Animals were fed ad libitum with FR-2 (Funabashi Farm) at the time of arrival and with solid feed CE-2 (CLEA Japan) for one week before single kidney removal, and watered ad libitum.
After acclimation breeding, the right kidney was removed about 7 days before renal IR treatment. Specifically, the rats were allowed to inhale isoflurane (Mylan) for anesthesia, and administered buprenorphine (Otsuka Pharmaceutical) as an analgesic at 0.01 mg/kg. The right back was incised, the right kidney was removed, and then the incision was sutured.
Renal IR treatment was performed about 7 days after single kidney removal. Specifically, rats were anesthetized by intraperitoneal administration of sodium pentobarbital (Tokyo Chemical Industry) at a dose of 50 mg/kg, and administered buprenorphine as an analgesic at 0.01 mg/kg. The left abdomen was incised, and the renal artery and vein was sandwiched with a clamp (Natsume Seisakusho) to cause ischemia for 35 minutes. During ischemia, the rats were allowed to lie on a heat-retaining plate set at 38°C, and after 35 minutes, the clamp was removed for reperfusion. After visually confirming that blood flow to the kidney was recovered, the incision was sutured. The sham group was a sham-operated group in which neither ischemia nor reperfusion treatment was performed.
Animals were distributed on the day before renal IR treatment such that differences in the mean of the body weight in each group were not biased, and assigned animal numbers.
The compound of Example 7 (test substance) and physiological saline (Otsuka Pharmaceutical) as a vehicle were subcutaneously administered at 5 mL/kg using an injection needle 5 minutes before renal IR treatment. Saline was administered to the sham group in the same test. The administration dose is described in Table 16.
Specifically, the rats were allowed to inhale isoflurane for anesthesia on the day before renal IR treatment, and administered buprenorphine as an analgesic at 0.01 mg/kg. […] The incision was bonded with Dermabond Advanced (Johnson & Johnson). A pump containing a vehicle was also embedded in the sham group in the same test. The administration dose is described in Table 16.
After renal IR treatment, blood was collected through the tail vein on Day1, Day2, and Day3 to obtain serum. In addition, after renal IR treatment, rats were euthanized by exsanguination through the abdominal aorta under isoflurane anesthesia on Day3.
The respective concentrations of serum creatinine (sCre) and blood urea nitrogen (BUN) were measured using an automatic analyzer 7180 (Hitachi High-Tech).

[3] = IR 1.0 µg/kg/min, subcutaneous osmotic pump, day 1
[4] = IR 1.0 µg/kg/min, subcutaneous osmotic pump, day 2
[5] = IR 3.0 µg/kg/min, subcutaneous osmotic pump, day 1
[6] = IR 3.0 µg/kg/min, subcutaneous osmotic pump, day 2
[7] = IR 0.1 mg/kg subcutaneous 5 minutes before renal IR treatment, day 1
[8] = IR 0.1 mg/kg subcutaneous 5 minutes before renal IR treatment, day 2
[9] = IR 0.1 mg/kg subcutaneous 5 minutes before renal IR treatment, day 3
[10] = IR 1.0 mg/kg subcutaneous 5 minutes before renal IR treatment, day 1
[11] = IR 1.0 mg/kg subcutaneous 5 minutes before renal IR treatment, day 2
[12] = IR 1.0 mg/kg subcutaneous 5 minutes before renal IR treatment, day 3

O=C(O)c1ccc2c(c1Cl)O[C@H]1C[C@@H](O)[C@H](/C=C/C(O)C(F)(F)c3c(F)cccc3F)[C@H]1CC2 (stereo partly drawn) [Example 8, (1R,2R,3aS,10aR)-5-chloro-1-[(1E,3ξ)-4-(2,6-difluorophenyl)-4,4-difluoro-3-hydroxy-1-buten-1-yl]-2-hydroxy-2,3,3a,9,10,10a-hexahydro-1H-benzo[b]cyclopenta[f]oxepine-6-carboxylic acid]
EC50 [1]: 2.7 µM

O=C(O)c1ccc2c(c1Cl)O[C@H]1CC[C@H](/C=C/C(O)C3(c4ccccc4)COC3)[C@H]1CC2 (stereo partly drawn) [Example 26-21, (1R,3aS,10aR)-5-chloro-1-[(1E,3ξ)-3-hydroxy-3-(3-phenyl-3-oxetanyl)-1-propen-1-yl]-2,3,3a,9,10,10a-hexahydro-1H-benzo[b]cyclopenta[f]oxepine-6-carboxylic acid]
EC50 [1]: > 10 µM

O=C(O)c1ccc2c(c1F)O[C@H]1C[C@@H](Cl)[C@H](/C=C/C(O)C3(c4ccccc4)CCO3)[C@H]1CC2 (stereo partly drawn) [Example 32-6, (1R,2R,3aS,10aR)-2-chloro-5-fluoro-1-{(1E,3ξ)-3-hydroxy-3-[(2ξ)-2-phenyl-2-oxetanyl]-1-propen-1-yl}-2,3,3a,9,10,10a-hexahydro-1H-benzo[b]cyclopenta[f]oxepine-6-carboxylic acid]
EC50 [1]: > 10 µM

O=C(O)c1ccc2c(c1)O[C@H]1CC[C@H](/C=C/C(O)C3(c4ccccc4F)CCC3)[C@H]1CC2 (stereo partly drawn) [Example 26-9, (1R,3aS,10aR)-1-{(1E,3ξ)-3-[1-(2-fluorophenyl)cyclobutyl]-3-hydroxy-1-propen-1-yl}-2,3,3a,9,10,10a-hexahydro-1H-benzo[b]cyclopenta[f]oxepine-6-carboxylic acid]
EC50 [1]: > 10 µM

CCCC[C@H](CC)C(O)/C=C/[C@H]1CC[C@@H]2Oc3c(ccc(C(=O)O)c3Cl)CC[C@@H]21 (stereo partly drawn) [Example 26-20, (1R,3aS,10aR)-5-chloro-1-[(1E,3ξ,4S)-4-ethyl-3-hydroxy-1-octen-1-yl]-2,3,3a,9,10,10a-hexahydro-1H-benzo[b]cyclopenta[f]oxepine-6-carboxylic acid]
EC50 [1]: > 10 µM

Cc1ccccc1C1(C(O)/C=C/[C@@H]2[C@H]3CCc4ccc(C(=O)O)c(F)c4O[C@H]3C[C@H]2O)CC1 (stereo partly drawn) [Example 5-2, (1R,2R,3aS,10aR)-5-fluoro-2-hydroxy-1-{(1E,3ξ)-3-hydroxy-3-[1-(2-methylphenyl)cyclopropyl]-1-propen-1-yl}-2,3,3a,9,10,10a-hexahydro-1H-benzo[b]cyclopenta[f]oxepine-6-carboxylic acid]
blood urea nitrogen (BUN) concentration mean [2, 3]: 75.5
serum creatinine (sCre) concentration mean [2, 3]: 0.91
blood urea nitrogen (BUN) concentration mean [2, 4]: 65.3
serum creatinine (sCre) concentration mean [2, 4]: 0.62
blood urea nitrogen (BUN) concentration mean [2, 5]: 63.4
serum creatinine (sCre) concentration mean [2, 5]: 0.79
blood urea nitrogen (BUN) concentration mean [2, 6]: 54.9
serum creatinine (sCre) concentration mean [2, 6]: 0.50

C=C(CCOC)C(O)/C=C/[C@H]1CC[C@@H]2Oc3c(ccc(C(=O)O)c3Cl)CC[C@@H]21 (stereo partly drawn) [Example 26-19, (1R,3aS,10aR)-5-chloro-1-[(1E,3ξ)-3-hydroxy-6-methoxy-4-methylene-1-hexen-1-yl]-2,3,3a,9,10,10a-hexahydro-1H-benzo[b]cyclopenta[f]oxepine-6-carboxylic acid]
EC50 [1]: > 10 µM

O=C(O)c1ccc2c(c1Cl)O[C@H]1CC[C@H](/C=C/C(O)C3(c4ccccc4F)CCC3)[C@H]1CC2 (stereo partly drawn) [Example 26-17, (1R,3aS,10aR)-5-chloro-1-{(1E,3ξ)-3-[1-(2-fluorophenyl)cyclobutyl]-3-hydroxy-1-propen-1-yl}-2,3,3a,9,10,10a-hexahydro-1H-benzo[b]cyclopenta[f]oxepine-6-carboxylic acid]
EC50 [1]: > 10 µM

Cc1c(C(=O)O)ccc2c1O[C@H]1CO[C@H](/C=C/C(O)C3(Oc4ccccc4)CCC3)[C@H]1CC2 (stereo partly drawn) [Example 41-2, (1R,3aR,10aR)-1-[(1E,3ξ)-3-hydroxy-3-(1-phenoxycyclobutyl)-1-propen-1-yl]-5-methyl-1,3,3a,9,10,10a-hexahydrofuro[3,4-b][1]benzoxepine-6-carboxylic acid]
EC50 [1]: > 10 µM

O=C(O)c1ccc2c(c1)O[C@H]1C[C@@H](O)[C@H](/C=C/[C@@H](O)C3(c4ccccc4)CC3)[C@H]1CC2 [Example 7, (1R,2R,3aS,10aR)-2-hydroxy-1-[(1E,3R)-3-hydroxy-3-(1-phenylcyclopropyl)-1-propen-1-yl]-2,3,3a,9,10,10a-hexahydro-1H-benzo[b]cyclopenta[f]oxepine-6-carboxylic acid]
blood urea nitrogen (BUN) concentration mean [2, 7]: 74.6
serum creatinine (sCre) concentration mean [2, 7]: 1.08
blood urea nitrogen (BUN) concentration mean [2, 8]: 58.7
serum creatinine (sCre) concentration mean [2, 8]: 0.72
blood urea nitrogen (BUN) concentration mean [2, 9]: 46.3
serum creatinine (sCre) concentration mean [2, 9]: 0.52
blood urea nitrogen (BUN) concentration mean [2, 10]: 73.6
serum creatinine (sCre) concentration mean [2, 10]: 0.99
blood urea nitrogen (BUN) concentration mean [2, 11]: 53.1
serum creatinine (sCre) concentration mean [2, 11]: 0.62
blood urea nitrogen (BUN) concentration mean [2, 12]: 39.7
serum creatinine (sCre) concentration mean [2, 12]: 0.44

CC(c1ccccc1F)C(O)/C=C/[C@@H]1[C@H]2CCc3ccc(C(=O)O)c(F)c3O[C@H]2C[C@H]1O (stereo partly drawn) [Example 3, (1R,2R,3aS,10aR)-5-fluoro-1-[(1E)-4-(2-fluorophenyl)-3-hydroxy-1-penten-1-yl]-2-hydroxy-2,3,3a,9,10,10a-hexahydro-1H-benzo[b]cyclopenta[f]oxepine-6-carboxylic acid]
EC50 [1]: 7.3 µM

C[C@@H](c1ccc(F)cc1F)[C@H](O)/C=C/[C@@H]1[C@H]2CCc3ccc(C(=O)O)c(F)c3O[C@H]2C[C@H]1O [Example 1, (1R,2R,3aS,10aR)-1-[(1E,3R,4S)-4-(2,4-difluorophenyl)-3-hydroxy-1-penten-1-yl]-5-fluoro-2-hydroxy-2,3,3a,9,10,10a-hexahydro-1H-benzo[b]cyclopenta[f]oxepine-6-carboxylic acid]
EC50 [1]: 3.5 µM
